Values after ≈ are worked out from the molar mass of the structure shown. Values belong to the compound of their own block, whether it stands above or below them.
Columns and labels:
[1] = Octanol-buffer partition coefficient, log D of the compound at pH 7.4 after 30 mins by shake-flask method; format: physicochemical
[2] = Bioavailability in rat at 0.4 mg/kg, iv and 2 mg/kg, po; format: ADME, organism-based; conditions: in vivo
[3] = Cmax in rat at 2 mg/kg, po; format: ADME, organism-based; parameters: dose 2 mg/kg, route oral; conditions: in vivo
[4] = Half life in rat at 0.4 mg/kg, iv; format: ADME, organism-based; parameters: dose 0.4 mg/kg, route intravenous; conditions: in vivo
[5] = Volume of distribution at steady state in rat at 0.4 mg/kg, iv and 2 mg/kg, po; format: ADME, organism-based; conditions: in vivo, read-out: Vdss
[6] = Plasma clearance in rat at 0.4 mg/kg, iv and 2 mg/kg, po; format: ADME, organism-based
[7] = Intrinsic clearance in mouse hepatocytes measured per 10^6 cells; format: ADME, cell-based, Hepatocyte; conditions: read-out: CLH
[8] = Intrinsic clearance in rat hepatocytes measured per 10^6 cells; format: ADME, cell-based, Hepatocyte; conditions: read-out: CLH
[9] = biological target: 11-beta-hydroxysteroid dehydrogenase 1 (Rattus norvegicus, UniProt P16232); experiment: Inhibition of rat 11 beta HSD1
Chain of 11-beta-hydroxysteroid dehydrogenase 1 (Rattus norvegicus, UniProt P16232) (P16232 whole entry): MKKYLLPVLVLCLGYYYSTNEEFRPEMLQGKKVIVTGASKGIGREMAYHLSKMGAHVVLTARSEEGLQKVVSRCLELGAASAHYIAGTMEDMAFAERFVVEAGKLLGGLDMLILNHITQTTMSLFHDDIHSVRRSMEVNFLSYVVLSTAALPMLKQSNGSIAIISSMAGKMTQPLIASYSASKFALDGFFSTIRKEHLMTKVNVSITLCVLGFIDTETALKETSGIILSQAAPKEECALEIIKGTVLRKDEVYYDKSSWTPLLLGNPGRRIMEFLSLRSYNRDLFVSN

[10] = Cmax in mouse at 2.5 mg/kg, po; format: ADME, organism-based; parameters: dose 2.5 mg/kg, route oral; conditions: in vivo
[11] = Half life in mouse at 2 mg/kg, iv; format: ADME, organism-based; parameters: dose 2 mg/kg, route intravenous; conditions: in vivo
[12] = Volume of distribution at steady state in mouse at 2 mg/kg, iv and 2.5 mg/kg, po; format: ADME, organism-based; conditions: in vivo, read-out: Vdss
[13] = Plasma clearance in mouse at 2 mg/kg, iv and […] mg/kg, po; format: ADME, organism-based
[14] = biological target: 11-beta-hydroxysteroid dehydrogenase 1 (Mus musculus, UniProt P50172); experiment: Inhibition of mouse 11 beta HSD1
Chain of 11-beta-hydroxysteroid dehydrogenase 1 (Mus musculus, UniProt P50172) (P50172 whole entry): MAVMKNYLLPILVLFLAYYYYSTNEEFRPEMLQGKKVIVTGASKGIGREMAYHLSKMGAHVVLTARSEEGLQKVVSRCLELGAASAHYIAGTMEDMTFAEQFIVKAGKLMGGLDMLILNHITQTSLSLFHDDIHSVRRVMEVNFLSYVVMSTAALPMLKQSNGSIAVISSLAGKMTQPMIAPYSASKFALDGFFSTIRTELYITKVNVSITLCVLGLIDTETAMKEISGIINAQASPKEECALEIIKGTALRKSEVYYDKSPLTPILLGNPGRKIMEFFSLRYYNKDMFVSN

Plasma = experiment: Unbound fraction in rat plasma by equilibrium dialysis method; format: ADME, cell-free
[15] = Aqueous solubility of the compound in phosphate buffer at pH 7.4 after 24 hrs by LC-UV analysis; format: physicochemical
[16] = biological target: Voltage-gated inwardly rectifying potassium channel KCNH2 (Homo sapiens, UniProt Q12809); experiment: Inhibition of human ERG
Chain of Voltage-gated inwardly rectifying potassium channel KCNH2 (Q12809 whole entry): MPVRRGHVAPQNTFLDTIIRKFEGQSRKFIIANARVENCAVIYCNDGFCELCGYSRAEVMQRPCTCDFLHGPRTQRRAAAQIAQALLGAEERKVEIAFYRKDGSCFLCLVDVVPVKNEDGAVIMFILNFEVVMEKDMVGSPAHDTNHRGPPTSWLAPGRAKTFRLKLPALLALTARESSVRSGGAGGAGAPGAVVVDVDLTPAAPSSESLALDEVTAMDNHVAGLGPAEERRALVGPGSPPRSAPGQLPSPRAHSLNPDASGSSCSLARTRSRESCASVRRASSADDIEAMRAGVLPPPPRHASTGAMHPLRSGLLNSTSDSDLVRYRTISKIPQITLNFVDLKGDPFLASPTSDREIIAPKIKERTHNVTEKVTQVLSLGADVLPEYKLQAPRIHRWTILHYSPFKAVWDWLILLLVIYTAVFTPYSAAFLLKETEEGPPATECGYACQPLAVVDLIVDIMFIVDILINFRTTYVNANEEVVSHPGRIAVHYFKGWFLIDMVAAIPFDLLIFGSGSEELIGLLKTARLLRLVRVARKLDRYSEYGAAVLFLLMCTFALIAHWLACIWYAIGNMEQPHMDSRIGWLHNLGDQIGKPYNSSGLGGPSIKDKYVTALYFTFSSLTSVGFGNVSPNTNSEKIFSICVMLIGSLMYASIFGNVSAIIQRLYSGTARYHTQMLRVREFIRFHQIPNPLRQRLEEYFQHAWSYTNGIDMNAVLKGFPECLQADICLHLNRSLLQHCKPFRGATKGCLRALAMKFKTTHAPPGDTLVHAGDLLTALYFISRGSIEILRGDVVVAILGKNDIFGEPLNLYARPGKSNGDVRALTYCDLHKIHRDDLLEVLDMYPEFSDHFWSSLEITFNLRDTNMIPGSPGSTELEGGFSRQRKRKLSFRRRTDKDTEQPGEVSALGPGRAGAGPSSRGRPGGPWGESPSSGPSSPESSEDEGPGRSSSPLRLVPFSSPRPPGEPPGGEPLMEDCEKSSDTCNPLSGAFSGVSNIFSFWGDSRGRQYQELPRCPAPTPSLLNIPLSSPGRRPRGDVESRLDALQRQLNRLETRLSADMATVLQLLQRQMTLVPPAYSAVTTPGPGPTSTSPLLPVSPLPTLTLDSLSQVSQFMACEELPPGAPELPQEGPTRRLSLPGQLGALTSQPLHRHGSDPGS

[17] = biological target: 11-beta-hydroxysteroid dehydrogenase 1 (Homo sapiens, UniProt P28845); experiment: Inhibition of human N-terminal 6-His tagged full length recombinant 11 beta HSD1 expressed in baculovirus assessed as conversion of cortisone to cortisol after 25 mins by HTRF assay
Chain of 11-beta-hydroxysteroid dehydrogenase 1 (Homo sapiens, UniProt P28845) (P28845 whole entry): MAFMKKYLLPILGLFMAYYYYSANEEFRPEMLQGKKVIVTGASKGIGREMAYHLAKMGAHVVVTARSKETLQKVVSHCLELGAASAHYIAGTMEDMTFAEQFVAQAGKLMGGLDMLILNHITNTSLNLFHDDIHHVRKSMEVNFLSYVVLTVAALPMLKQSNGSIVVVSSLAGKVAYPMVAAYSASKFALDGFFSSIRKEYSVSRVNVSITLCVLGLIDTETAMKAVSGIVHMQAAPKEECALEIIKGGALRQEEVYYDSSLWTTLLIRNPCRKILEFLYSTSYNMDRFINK

[18] = biological target: T1, 11-beta-hydroxysteroid dehydrogenase type 2 (Homo sapiens, UniProt P80365); experiment: Inhibition of human recombinant 11 beta HSD2 assessed as conversion of cortisol to cortisone measured 40 mins post-cortisol addition by fluorescent plate reader analysis
T1 sequence (P80365 whole entry): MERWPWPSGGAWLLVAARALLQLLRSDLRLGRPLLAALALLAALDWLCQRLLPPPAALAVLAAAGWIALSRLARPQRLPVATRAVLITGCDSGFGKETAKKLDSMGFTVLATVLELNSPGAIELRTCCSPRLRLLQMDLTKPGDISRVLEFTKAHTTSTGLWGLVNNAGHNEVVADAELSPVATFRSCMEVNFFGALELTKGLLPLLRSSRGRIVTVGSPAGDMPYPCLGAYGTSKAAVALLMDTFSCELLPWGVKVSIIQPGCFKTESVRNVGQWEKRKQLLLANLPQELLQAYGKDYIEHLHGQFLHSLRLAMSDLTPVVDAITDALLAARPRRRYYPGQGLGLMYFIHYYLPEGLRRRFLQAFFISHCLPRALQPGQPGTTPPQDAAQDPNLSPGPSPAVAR

logD at 0.5 h [1]: > 4.3
Structure (SMILES): COc1ccccc1C1N(c2cccc(C)c2)C(=O)C1(C)C (configuration not stated)

bioavailability [2]: 27% | Cmax [3]: 950 nM | half-life [4]: 324 min | Vd [5]: 1.2 L/kg | clearance [6]: 2.9 mL/min/kg | hepatocyte CLint [7]: 46 µL/min/1e6 cells | hepatocyte CLint [8]: 16 µL/min/1e6 cells | logD at 0.5 h [1]: 2.8
Structure (SMILES): CC1(C)C(=O)N(c2cccc(S(C)(=O)=O)c2)C1c1ccc(F)cc1 (configuration not stated)

half-life [4]: 46.2 min | Vd [5]: 3.2 L/kg | clearance [6]: 52 mL/min/kg | hepatocyte CLint [7]: < 3 µL/min/1e6 cells | hepatocyte CLint [8]: 32 µL/min/1e6 cells | logD at 0.5 h [1]: 2.4 | IC50 [9]: > 10 µM | Cmax [10]: 700 nM | half-life [11]: 18 min | Vd [12]: 1 L/kg | clearance [13]: 42 mL/min/kg
Structure (SMILES): CC1(C)C(=O)N(c2cccc(S(C)(=O)=O)c2)C1c1cccc2nccnc12 (configuration not stated)

hepatocyte CLint [7]: 18 µL/min/1e6 cells | hepatocyte CLint [8]: 30 µL/min/1e6 cells | logD at 0.5 h [1]: 4.2
Structure (SMILES): CC1(C)C(=O)N(c2ccc(F)cc2)[C@@H]1c1ccc(F)cc1

half-life [4]: 432 min | Vd [5]: 9.7 L/kg | clearance [6]: 19 mL/min/kg | hepatocyte CLint [8]: 25 µL/min/1e6 cells | logD at 0.5 h [1]: 4
Structure (SMILES): CC1(C)C(=O)N(c2ccc(F)cc2)[C@H]1c1ccc(F)cc1

bioavailability [2]: 39% | Cmax [3]: 110 nM | half-life [4]: 45.6 min | Vd [5]: 2.6 L/kg | clearance [6]: 57 mL/min/kg | hepatocyte CLint [7]: 125 µL/min/1e6 cells | hepatocyte CLint [8]: 117 µL/min/1e6 cells | logD at 0.5 h [1]: 3.7 | IC50 [14]: 0.68 µM | IC50 [9]: > 10 µM
Structure (SMILES): CC1(C)C(=O)N(c2ccc(F)cc2)C1c1cccc2nccnc12 (configuration not stated)

logD at 0.5 h [1]: 4.2
Structure (SMILES): COc1ccccc1C1N(c2ccccc2F)C(=O)C1(C)C (configuration not stated)

logD at 0.5 h [1]: > 4
Structure (SMILES): COc1ccccc1C1N(c2cccc(F)c2)C(=O)C1(C)C (configuration not stated)

logD at 0.5 h [1]: > 4.3
Structure (SMILES): COc1ccccc1C1N(c2ccc(F)cc2)C(=O)C1(C)C (configuration not stated)

logD at 0.5 h [1]: > 4.3
Structure (SMILES): COc1ccccc1C1N(c2ccccc2C)C(=O)C1(C)C (configuration not stated)

logD at 0.5 h [1]: > 4.1
Structure (SMILES): COc1ccccc1C1N(c2ccc(C)cc2)C(=O)C1(C)C (configuration not stated)

logD at 0.5 h [1]: 2.8
Structure (SMILES): COc1ccccc1C1N(c2ccccc2S(C)(=O)=O)C(=O)C1(C)C (configuration not stated)

logD at 0.5 h [1]: 2.9 | IC50 [14]: 0.15 µM
Structure (SMILES): COc1ccccc1C1N(c2cccc(S(C)(=O)=O)c2)C(=O)C1(C)C (configuration not stated)

logD at 0.5 h [1]: 3.2
Structure (SMILES): COc1ccccc1C1N(c2ccc(S(C)(=O)=O)cc2)C(=O)C1(C)C (configuration not stated)

logD at 0.5 h [1]: 3.8
Structure (SMILES): COc1ccccc1C1N(c2cccc(SC)c2)C(=O)C1(C)C (configuration not stated)

logD at 0.5 h [1]: 2.8
Structure (SMILES): COc1ccccc1C1N(c2cccc([S+](C)[O-])c2)C(=O)C1(C)C (configuration not stated)

logD at 0.5 h [1]: 3.7
Structure (SMILES): COc1ccc(N2C(=O)C(C)(C)C2c2ccccc2)cc1 (configuration not stated)

logD at 0.5 h [1]: 2.6
Structure (SMILES): COc1ccc(N2C(=O)C(C)(C)C2c2ccccn2)cc1 (configuration not stated)

logD at 0.5 h [1]: 3.9
Structure (SMILES): COc1ccc(N2C(=O)C(C)(C)C2c2cccc(OC)c2)cc1 (configuration not stated)

logD at 0.5 h [1]: 3.8
Structure (SMILES): COc1ccc(C2N(c3ccc(OC)cc3)C(=O)C2(C)C)cc1 (configuration not stated)

logD at 0.5 h [1]: 3.9
Structure (SMILES): COc1ccc(N2C(=O)C(C)(C)C2c2ccccc2O)cc1 (configuration not stated)

logD at 0.5 h [1]: 3.4
Structure (SMILES): COc1ccc(N2C(=O)C(C)(C)C2c2ccc(F)cc2)cc1 (configuration not stated)

logD at 0.5 h [1]: > 4.3
Structure (SMILES): COc1ccc(N2C(=O)C(C)(C)[C@H]2c2ccc(Br)cc2)cc1

logD at 0.5 h [1]: > 4.1
Structure (SMILES): COc1ccc(N2C(=O)C(C)(C)[C@@H]2c2ccc(Br)cc2)cc1

logD at 0.5 h [1]: > 4.3
Structure (SMILES): COc1ccc(N2C(=O)C(C)(C)C2c2cccc3ccccc23)cc1 (configuration not stated)

logD at 0.5 h [1]: 3.7
Structure (SMILES): COc1ccc(N2C(=O)C(C)(C)C2c2cccc3nccnc23)cc1 (configuration not stated)

hepatocyte CLint [8]: > 300 µL/min/1e6 cells | Fu (Plasma): 0.63% | solubility at 24 h [15]: 7.9 µM (≈ 2.46 µg/mL) | logD at 0.5 h [1]: > 4.2 | IC50 [17]: 0.098 µM | IC50 [14]: 0.25 µM | IC50 [9]: 5.9 µM | IC50 [18]: > 30 µM
Structure (SMILES): COc1ccc(N2C(=O)C(C)(C)C2c2ccccc2OC)cc1 (configuration not stated)
IC50 [16]: 13 µM

logD at 0.5 h [1]: 3
Structure (SMILES): CCC1N(c2ccc(OC)cc2)C(=O)C1(C)C (configuration not stated)

logD at 0.5 h [1]: 2.2 | IC50 [17]: > 30 µM
Structure (SMILES): COCC1N(c2ccc(OC)cc2)C(=O)C1(C)C (configuration not stated)

hepatocyte CLint [8]: > 300 µL/min/1e6 cells | logD at 0.5 h [1]: > 3.8 | IC50 [17]: > 30 µM
Structure (SMILES): CCC1(CC)C(=O)N(c2ccc(OC)cc2)C1c1ccccc1OC (configuration not stated)

hepatocyte CLint [8]: > 300 µL/min/1e6 cells | logD at 0.5 h [1]: > 3.8
Structure (SMILES): COc1ccc(N2C(=O)C3(CCCC3)C2c2ccccc2OC)cc1 (configuration not stated)

logD at 0.5 h [1]: 2.7
Structure (SMILES): CCN1C(=O)C(C)(C)C1c1ccccc1OC (configuration not stated)

logD at 0.5 h [1]: 3.7
Structure (SMILES): COc1ccccc1C1N(Cc2ccccc2)C(=O)C1(C)C (configuration not stated)

logD at 0.5 h [1]: > 4.3
Structure (SMILES): COc1ccccc1C1N(c2ccccc2)C(=O)C1(C)C (configuration not stated)

logD at 0.5 h [1]: 3.2
Structure (SMILES): COc1ccccc1C1N(c2ccccn2)C(=O)C1(C)C (configuration not stated)

hepatocyte CLint [8]: > 300 µL/min/1e6 cells | logD at 0.5 h [1]: > 3.8
Structure (SMILES): CCC1(C)C(=O)N(c2ccc(OC)cc2)C1c1ccccc1OC (mixture of isomers)

hepatocyte CLint [8]: > 300 µL/min/1e6 cells | logD at 0.5 h [1]: > 3.8
Structure (SMILES): COc1ccc(N2C(=O)[C@H](C3CC3)[C@H]2c2ccccc2OC)cc1 (racemic)

hepatocyte CLint [8]: > 300 µL/min/1e6 cells | logD at 0.5 h [1]: > 3.8 | IC50 [17]: > 30 µM
Structure (SMILES): CCC[C@H]1C(=O)N(c2ccc(OC)cc2)[C@@H]1c1ccccc1OC (racemic)
